Test results from PMC4666608, “Metabolic Profiling of Chicken Embryos Exposed to Perfluorooctanoic Acid (PFOA) and Agonists to Peroxisome Proliferator-Activated Receptors” (PLoS ONE, 2015).
Marks after values point to notes of the source that are not given here.

Tested on: chicken embryos
Assay: Metabolic profiling of allantoic fluid (GC-MS, LC-MS, OPLS-DA)
Format: in vivo, Gallus gallus domesticus
Conditions: 150 μg/egg
Description: Controls were injected with 20 μL vehicle only (DMSO).
Plasma was collected and stored at -70°C.
Metabolites in allantoic fluid and blood plasma were analyzed using gas chromatography-mass spectrometry (GC-MS) and liquid chromatography-mass spectrometry (LC-MS) as described in S1 Methods. Prior to GC-MS and LC-MS analysis, allantoic fluid (100 μL) and blood plasma (50 μL) were extracted. To each sample, 900 μL (allantoic fluid) or 450 μL (blood plasma) of extraction buffer (90/10 v/v methanol:water) including all internal standards were added. Standards for GC-MS were proline, succinic acid, glutamic acid, salicylic acid, alpha-ketoglutarate, putrescine, myristic acid, hexadecanoic acid, cholesterol, and sucrose. Standards for LC-MS were Val-Tyr-Val, Leu-enkephalin, sulfadimethoxine and reserpine. Samples were homogenized by shaking in a bead mill at a frequency of 30 Hz for 3 minutes and proteins were precipitated at +4°C on ice. The samples were centrifuged at +4°C, 14000 rpm, for 10 min. Then, 200 μL supernatant was transferred to a GC microvial and 200 μL was transferred to an LC microvial, and solvents were evaporated. Samples from the four replicate experiments were analyzed using in chronological order and within each replicate experiment the run order of the individual samples was randomized.
Multivariate statistical analyses of metabolite profiles were performed using the software package SIMCA-P version 13.0 (Umetrics, Umeå, Sweden). Data was centered and scaled to variance 1 (UV scaling) prior to modelling. To reduce unintended systematic variation caused by sample processing and instrument drift, GC-MS and LC-MS metabolite amounts (expressed as the area under the chromatographic peak) were normalized by Orthogonal Partial Least Squares analysis (O2PLS) prior to multivariate data analysis. O2PLS finds common (predictive) and unique (orthogonal) variation in two data matrices. If applied to find the common variation between the data matrix containing the measured metabolite concentrations and a matrix containing only the internal standards, the only common (predictive) variation expected is due to the unintended systematic variation. By deleting the contribution of the predictive latent variables, that variation can be removed from the data. Models obtained after this normalization contain in general less latent variables, and this simplification helps when deciding on the number of latent variables to be used. Following normalization, GC-MS and LC-MS data were analyzed together. Initially, a global Principal Component Analysis (PCA) was performed to get an overview of groups and trends and to identify outliers. Projections to latent structures by means of Orthogonal Partial Least Squares Discriminant Analysis (OPLS-DA) was used to model the relationship between the X-matrix (metabolite concentrations) and the Y matrix (class, i.e. exposure group or sex), and to find x-variables that were related to class belonging. OPLS-DA is a supervised prediction and regression method that rotates the projection plane to find the maximum covariance between the data and the class assignment. All groups were first analyzed together in a 5-class OPLS-DA and then each exposure group was analyzed against the control group in a 2-class OPLS-DA. Sex differences were analyzed both using the whole data set and in each group separately using 2-class OPLS-DA, with females and males as the two classes. Only variables with 80% or more nonzero values were included in the statistical models. […] The validity of each model was also checked using CV-ANOVA (ANOVA of the cross-validated residuals). A significance level of p < 0.05 was used. For each model, R ^2 X, R ^2 Y and Q ^2 values were calculated, where R ^2 X is a measure of the fraction of x variation modeled in the extracted latent variables, R ^2 Y is a measure of the fraction of y variation modeled and Q ^2 is an estimate of the predictive ability of the model and is calculated by cross-validation. […]

[1] = GC, tentative 2-Oxovaleric acid

CN(CCOc1ccc(CC2SC(=O)NC2=O)cc1)c1ccccn1 (centres unmarked) [Rosiglitazone, rosiglitazone, reference compound]
Mean concentration relative to control, feature Win004_C08 (GC): 1.2** | Mean concentration relative to control, feature Win005_C07 (GC): 1.2* | Mean concentration relative to control, feature Win008_C06 (GC): 1.7*** | Mean concentration relative to control, feature Win022_C01 (GC): 2.2*** | Mean concentration relative to control, feature Win023_C06 (GC): 1.8* | Mean concentration relative to control, feature win006_C01 (GC): 2.3*** | Mean concentration relative to control, feature Win008_C07 (GC, tentative 1-Aminocyclopropanecarboxylic acid): 1.1 | Mean concentration relative to control, feature Win023_C03 (GC, tentative 2-Oxoglutaric acid): 2.5*** | Mean concentration relative to control, feature Win007_C09 [1]: 1.3*** | Mean concentration relative to control, feature Win008_C05 [1]: 1.4*** | Mean concentration relative to control, feature Win018_C04 (GC, tentative 3-Amino-2-piperidone): 1 | Mean concentration relative to control, feature Win007_C03 (GC, tentative 3-Hydroxybutanoic acid): 1.0 | Mean concentration relative to control, feature Win042_C02 (GC, tentative Cystathionine): 1.1 | Mean concentration relative to control, feature Win009_C03 (GC, tentative Ketoleucine): 1.3** | Mean concentration relative to control, feature Win008_C04 (GC, tentative Malonic acid): 1.0 | Mean concentration relative to control, feature Win005_C03 (GC, tentative Oxalic acid): 0.7** | Mean concentration relative to control, feature Win013_C05 (GC, tentative Succinic acid): 1.1* | Mean concentration relative to control, feature 134.0239@1.1350567 (LC): 1.4* | Mean concentration relative to control, feature 145.0538@3.072527 (LC): 1.2 | Mean concentration relative to control, feature 147.0328@3.0722888 (LC): 1.2 | Mean concentration relative to control, feature 160.0323@1.1950632 (LC): 1.2*** | Mean concentration relative to control, feature 173.0488@3.0734746 (LC): 1.2 | Mean concentration relative to control, feature 176.0952@1.3890611 (LC): 0.4* | Mean concentration relative to control, feature 178.0428@1.7582192 (LC): 1.3** | Mean concentration relative to control, feature 180.0048@4.421465 (LC): 0.9*** | Mean concentration relative to control, feature 189.1159@1.9209185 (LC): 0.7** | Mean concentration relative to control, feature 197.0639@2.1181405 (LC): 1.2*** | Mean concentration relative to control, feature 201.012@3.046474 (LC): 1.1 | Mean concentration relative to control, feature 202.0429@2.9548414 (LC): 1.3*** | Mean concentration relative to control, feature 205.0533@4.421879 (LC): 0.9*** | Mean concentration relative to control, feature 214.016@2.1190732 (LC): 1.2** | Mean concentration relative to control, feature 226.0107@4.421457 (LC): 0.9*** | Mean concentration relative to control, feature 236.0816@3.0720985 (LC): 1.2 | Mean concentration relative to control, feature 241.0551@2.3510706 (LC): 1.3*** | Mean concentration relative to control, feature 243.1118@2.1537287 (LC): 0.7*** | Mean concentration relative to control, feature 244.9972@4.421603 (LC): 0.96* | Mean concentration relative to control, feature 245.1563@2.2907295 (LC): 0.7* | Mean concentration relative to control, feature 250.0981@3.072492 (LC): 1.2 | Mean concentration relative to control, feature 262.0978@2.7961144 (LC): 1.3* | Mean concentration relative to control, feature 263.0855@2.2847009 (LC): 1.4** | Mean concentration relative to control, feature 270.0441@1.1407775 (LC): 0.7* | Mean concentration relative to control, feature 278.0928@3.0723689 (LC): 1.2 | Mean concentration relative to control, feature 279.1248@2.796395 (LC): 1.4* | Mean concentration relative to control, feature 280.1425@2.730277 (LC): 1.1** | Mean concentration relative to control, feature 288.1166@2.9551322 (LC): 1.7** | Mean concentration relative to control, feature 289.1012@3.249983 (LC): 1.2 | Mean concentration relative to control, feature 289.173@7.5030584 (LC): 0.7*** | Mean concentration relative to control, feature 294.1242@2.3692534 (LC): 0.7*** | Mean concentration relative to control, feature 302.0508@3.0722616 (LC): 1.1 | Mean concentration relative to control, feature 305.1682@5.353517 (LC): 1.2 | Mean concentration relative to control, feature 305.1684@5.2955093 (LC): 1.2 | Mean concentration relative to control, feature 308.073@4.4211636 (LC): 0.9*** | Mean concentration relative to control, feature 310.1181@1.5090439 (LC): 0.7*** | Mean concentration relative to control, feature 316.0389@3.0725708 (LC): 1.2 | Mean concentration relative to control, feature 320.0626@3.0729218 (LC): 1.1 | Mean concentration relative to control, feature 325.1114@2.1190624 (LC): 1.6*** | Mean concentration relative to control, feature 325.1115@2.3554378 (LC): 1.5** | Mean concentration relative to control, feature 333.1335@2.8639288 (LC): 0.7*** | Mean concentration relative to control, feature 333.2005@6.5291867 (LC): 1.1 | Mean concentration relative to control, feature 335.1866@4.508565 (LC): 0.7*** | Mean concentration relative to control, feature 337.1651@1.8737898 (LC): 1.6*** | Mean concentration relative to control, feature 344.1424@2.348947 (LC): 1.5** | Mean concentration relative to control, feature 348.0553@3.0730357 (LC): 1.1 | Mean concentration relative to control, feature 349.1651@2.4087605 (LC): 1 | Mean concentration relative to control, feature 357.1997@6.9691257 (LC): 0.8* | Mean concentration relative to control, feature 371.1513@3.0009465 (LC): 1.4** | Mean concentration relative to control, feature 375.1819@3.672254 (LC): 0.9 | Mean concentration relative to control, feature 394.167@3.9552917 (LC): 0.7* | Mean concentration relative to control, feature 414.1482@2.118972 (LC): 1.5*** | Mean concentration relative to control, feature 466.0837@2.1187525 (LC): 1.5*** | Mean concentration relative to control, feature 488.0753@4.419585 (LC): 0.8*** | Mean concentration relative to control, feature 498.1003@2.1184251 (LC): 1.4*** | Mean concentration relative to control, feature 507.1682@2.1238236 (LC): 1.3* | Mean concentration relative to control, feature 580.1426@3.0726147 (LC): 1.3 | Mean concentration relative to control, feature 582.1578@2.1747615 (LC): 1.8*** | Mean concentration relative to control, feature 588.1751@2.1182237 (LC): 1.5*** | Mean concentration relative to control, feature 594.1337@3.0724604 (LC): 1.3 | Mean concentration relative to control, feature 604.1486@2.1174603 (LC): 1.5*** | Mean concentration relative to control, feature 623.183@2.1249466 (LC): 1.8*** | Mean concentration relative to control, feature 668.2625@6.4379454 (LC): 1.04** | Mean concentration relative to control, feature 155.0353@0.6447272 (LC, suggested C3H10NO4P): 0.4* | Mean concentration relative to control, feature 345.0497@1.1234403 (LC, suggested C10H12N5O7P): 1.6*** | Mean concentration relative to control, feature 337.0259@4.4213357 (LC, suggested C13H11N3O4S2): 0.9*** | Mean concentration relative to control, feature 344.1427@2.1164653 (LC, suggested C13H20N4O7): 1.6*** | Mean concentration relative to control, feature 331.184@6.373359 (LC, suggested C13H25N5O5): 1 | Mean concentration relative to control, feature 361.2026@5.6644735 (LC, suggested C16H31N3O4S): 0.7**
